Measurements from US7858790B2, “Modulators of muscarinic receptors” (Vertex Pharmaceuticals Incorporated, priority 2006, dated 2010).

Key:
M1 muscarinic receptor = molecular target: T1, M1 muscarinic receptor (Homo sapiens, UniProt P11229); test: Functional mobilization of intracellular calcium (FLIPR) in CHO cells expressing M1 muscarinic receptor; assay type: cell-based; conditions: for M1 Activity: CHO cells expressing M1, calcium mobilization; for Emax: CHO, 100% efficacy is the maximum response obtained with the Carbachol control
T1 construct: expressed in transfected cells; host or cells: CHO (M1-CHO recombinant cell line)
T1 sequence (P11229 1-460): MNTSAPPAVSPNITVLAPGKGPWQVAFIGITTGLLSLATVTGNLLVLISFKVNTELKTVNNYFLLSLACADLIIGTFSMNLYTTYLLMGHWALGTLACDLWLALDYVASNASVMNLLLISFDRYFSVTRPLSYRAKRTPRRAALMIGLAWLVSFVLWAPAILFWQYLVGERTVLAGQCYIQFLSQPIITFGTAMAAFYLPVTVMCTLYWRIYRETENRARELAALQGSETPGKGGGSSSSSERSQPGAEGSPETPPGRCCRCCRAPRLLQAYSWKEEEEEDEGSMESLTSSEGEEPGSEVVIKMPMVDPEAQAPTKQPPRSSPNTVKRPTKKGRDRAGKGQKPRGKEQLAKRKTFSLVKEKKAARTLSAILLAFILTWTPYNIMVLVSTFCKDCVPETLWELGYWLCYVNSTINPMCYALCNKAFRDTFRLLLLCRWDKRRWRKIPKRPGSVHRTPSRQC
Method: (§1) VI. Assays for Detecting and Measuring Inhibition Properties of Compounds Functional Mobilization of Intracellular Calcium to Determine Muscarinic Receptor Activity:
(§2) CHO cells expressing muscarinic receptors (M1 to M5) are grown as monolayers in tissue culture flasks at 37° C. in a humidified atmosphere containing 5% CO2 and passaged every 3-5 days. The growth media is Dulbecco's modified eagles medium (DMEM, Gibco Cat# 12430-054), containing 25 mM Hepes and supplemented with Fetal Bovine Serum (Hyclone, cat# SH30071.03), 0.1 mM of MEM non-essential amino acids (GIBCO, Cat# 11140-050), 1 mM MEM Sodium Pyruvate (GIBCO Cat# 11360-070) and 100 units/ml of Penicillin G and 100 μg/ml of Streptomycin (GIBCO Cat# 15140-122). The recombinant muscarinic receptor cell lines are grown under antibiotic pressure with media containing 25 μg/ml zeocin and 500 μg/ml G418 (M1-CHO), 4 μg/ml puromycin, 50 μg/ml zeocin and 2.5 μg/ml blasticidin (M2 and M4-CHO) or 50 μg/ml zeocin and 4 μg/ml puromycin (M3 and M5-CHO).
(§3) Cells are harvested at 80-90% confluence using Versene (GIBCO Cat# 15040-066), collected by centrifugation and seeded 18-24 hours prior to running the calcium assay at a density of 5,000-10,000 cells/well in […], clear-bottomed 384-well plates (BD Biocoat, poly-D-lysine, Cat#356663). The day of the experiment, the cells are washed with a plate washer (Bioteck Instruments, ELX 405) using bath buffer (140-mM NaCl, 4.5-mM KCl, 2-mM CaCl2, 1-mM MgCl2, 10-mM Hepes-Na, 10-mM Glucose, pH 7.4, with NaOH) containing 1 mM Probenecid. Next, the calcium dye Fluo-3 (25 μl/well of Fluo-3 μM at 4 μM, Molecular Probes F-1241, in Bath 1 buffer containing 1 mM Probenecid) is added to the 25 μl of Bath 1 remaining in each well after the plate wash and the dye is loaded at 37° C. in the tissue culture incubator for 60-90 min. The fluorescent dye is removed using the plate washer with Bath 1 containing 1 mM Probenecid, leaving 25 μl/well of this solution after the wash. Alternatively, cells can be loaded with the calcium indicator from Molecular Devices (Calcium 3 Assay Reagents, Cat # R7181) adding 5 μl of a 5× solution dye in Bath 1 containing 1 mM Probenecid (10 ml per dye flask cat# R7182 to generate a solution 20×) to 20 μl of the same buffer. After loading for 60 min, the experiment can be run without having to remove the dye.
(§4) Compounds are prepared at a 2× fold concentration in a 96-well plate (round bottom, Costar Corning cat# 3656), by reconstituting the pre-spotted compounds in bath 1 containing 1 mM probenecid. The final concentration DMSO is 0.5%, and the amount of DMSO is normalized across the assay plate. To determine an agonist action of the compounds on muscarinic receptors, the reconstituted compounds are added (25 μl compound/well) to the cell assay plate (containing 25 μl/well) using the multi-channel robotic system of the FLIPR 3 Instrument (Molecular Devices, Sunnyvale, Calif.). To determine a functional inhibitory-action of the compounds on muscarinic receptors, the reconstituted compounds are added (25 μl compound/well) to the assay plate and pre-incubated for 15 min prior to adding 25 μl of Carbachol at 3× the EC80 for each muscarinic subtype. Alternatively, the compounds can be co-applied simultaneously with the agonist. In both assay modes, the fluorescence is recorded for 60 sec (excitation wavelength is […] and emission wavelength 540 nm) using the FLIPR 3 instrument.
(§5) The potency, efficacy and selectivity of the muscarinic compounds were evaluated by screening the compound activity across the whole family (M1 to M5 cells). Compounds were also screened for activity on other proteins such as other GPCRs and ion channels to determine selectivity on M4 receptors.
(§6) Examples of activities and efficacies of the muscarinic compounds of formulae (I, Ia, and Ib) on modulating M1 and M4 receptors are shown below in Table 8. […]

M4 muscarinic receptor = molecular target: T2, M4 muscarinic receptor (Homo sapiens, UniProt P08173); test: Functional mobilization of intracellular calcium (FLIPR) in CHO cells expressing M4 muscarinic receptor; assay type: cell-based; conditions: for M4 Activity: CHO cells expressing M4, calcium mobilization; for Emax: CHO, 100% efficacy is the maximum response obtained with the Carbachol control
T2 construct: expressed in transfected cells; host or cells: CHO (M4-CHO recombinant cell line)
T2 sequence (P08173 1-479): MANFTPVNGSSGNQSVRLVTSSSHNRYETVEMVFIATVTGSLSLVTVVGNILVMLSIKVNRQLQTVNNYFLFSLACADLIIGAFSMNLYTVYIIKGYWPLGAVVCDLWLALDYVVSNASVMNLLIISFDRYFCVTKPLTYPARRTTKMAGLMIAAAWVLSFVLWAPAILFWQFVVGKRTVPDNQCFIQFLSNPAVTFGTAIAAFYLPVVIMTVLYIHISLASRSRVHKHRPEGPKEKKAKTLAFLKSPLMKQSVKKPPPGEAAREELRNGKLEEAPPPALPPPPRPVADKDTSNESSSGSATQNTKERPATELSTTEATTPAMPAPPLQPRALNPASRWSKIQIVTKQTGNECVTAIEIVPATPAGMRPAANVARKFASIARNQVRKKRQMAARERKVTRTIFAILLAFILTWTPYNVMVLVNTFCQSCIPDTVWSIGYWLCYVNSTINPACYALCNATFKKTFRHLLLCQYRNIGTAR
Method: as §1, §2, §3, §4, §5, §6

Row | Compound | M1 Activity (M1 muscarinic receptor) | Emax (M1 muscarinic receptor) [%] | M4 Activity (M4 muscarinic receptor) | Emax (M4 muscarinic receptor) [%]
1 | CCOC(=O)N1CCC(N2CCC3(C=C(C(=O)NC(CC)CC)c4ccccc43)CC2)CC1 [compound 28] | ++ (activity was measured to be from 2.0 μM to 10.0 μM) | 25 to 100 | +++ (activity was measured to be less than 2.0 μM) | 25 to 100
2 | CCC(CC)NC(=O)C1=CC2(CCN(C3CCCC3)CC2)c2ccccc21 [compound 17] | + (activity was measured to be greater than 10.0 μM) | < 25 | + (activity was measured to be greater than 10.0 μM) | 25 to 100
3 | CCC(CC)NC(=O)C1=CC2(CCN(CC3CCCCC3)CC2)c2ccccc21 [Compound No. 68, 1′-(cyclohexylmethyl)-N-(pentan-3-yl)spiro[indene-1,4′-piperidine]-3-carboxamide] | – | < 25 | – | 25 to 100
4 | CCCOC(=O)N1CCC(N2CCC3(C=C(C(=O)NC(CC)CC)c4ccccc43)CC2)CC1 [compound 42] | + (activity was measured to be greater than 10.0 μM) | < 25 | + (activity was measured to be greater than 10.0 μM) | < 25
5 | CCC(CC)NC(=O)C1=CC2(CCN(CCC3CCSCC3)CC2)c2ccccc21 [compound 76] | + (activity was measured to be greater than 10.0 μM) | < 25 | + (activity was measured to be greater than 10.0 μM) | < 25
6 | CCC(CC)NC(=O)C1=CC2(CCN(CCC(C)(C)C)CC2)c2ccccc21 [compound 39] | + (activity was measured to be greater than 10.0 μM) | < 25 | ++ (activity was measured to be from 2.0 μM to 10.0 μM) | 25 to 100
7 | CC(C)NC(=O)C1=CC2(CCN(CC3CC4C=CC3C4)CC2)c2ccccc21 (centres unmarked) [compound 66] | + (activity was measured to be greater than 10.0 μM) | < 25 | +++ (activity was measured to be less than 2.0 μM) | 25 to 100
8 | O=C(C1=CCC2(CCN(CC3CC4C=CC3C4)CC2)c2ccccc21)N1CCCC1 (centres unmarked) [compound 34] | +++ (activity was measured to be less than 2.0 μM) | 25 to 100 | + (activity was measured to be greater than 10.0 μM) | < 25
9 | CCC(CC)NC(=O)C1=CC2(CCN(CCCCSC)CC2)c2ccccc21 [compound 55] | + (activity was measured to be greater than 10.0 μM) | < 25 | + (activity was measured to be greater than 10.0 μM) | < 25
10 | CCOC(=O)N1C2CCC1CC(N1CCC3(C=C(C(=O)O)c4ccccc43)CC1)C2 (centres unmarked) [compound 13] | +++ (activity was measured to be less than 2.0 μM) | 25 to 100 | +++ (activity was measured to be less than 2.0 μM) | 25 to 100
11 | CN(C)C(=O)C1=CC2(CCN(CC3CCCCC3)CC2)c2ccccc21 [compound 59] | + (activity was measured to be greater than 10.0 μM) | < 25 | +++ (activity was measured to be less than 2.0 μM) | 25 to 100
12 | O=C(O)C1=CC2(CCN(C3C[C@@H]4CC[C@@H]3C4)CC2)c2ccccc21 (stereo in doubt) [Compound No. 48, 1′-(bicyclo[2.2.1]heptan-2-yl)spiro[indene-1,4′-piperidine]-3-carboxylic acid] | + (activity was measured to be greater than 10.0 μM) | 25 to 100 | + (activity was measured to be greater than 10.0 μM) | 25 to 100
13 | CCOC(=O)N1CCC(N2CCC3(CC=C(C(=O)N4CCCC4)c4ccccc43)CC2)CC1 [compound 43] | +++ (activity was measured to be less than 2.0 μM) | 25 to 100 | +++ (activity was measured to be less than 2.0 μM) | 25 to 100
14 | CC(C)(C)CCN1CCC2(C=C(C(=O)N3CCCCC3)c3ccccc32)CC1 [Compound No. 37] | +++ (activity was measured to be less than 2.0 μM) | 25 to 100 | +++ (activity was measured to be less than 2.0 μM) | 25 to 100
15 | O=C(NC1CCC1)C1=CC2(CCN(CC3CC4C=CC3C4)CC2)c2ccccc21 (centres unmarked) [compound 47] | ++ (activity was measured to be from 2.0 μM to 10.0 μM) | 25 to 100 | +++ (activity was measured to be less than 2.0 μM) | 25 to 100
16 | CCOC(=O)N1CCC(N2CCC3(C=C(C(=O)NC)c4ccccc43)CC2)CC1 [compound 65] | +++ (activity was measured to be less than 2.0 μM) | 25 to 100 | +++ (activity was measured to be less than 2.0 μM) | 25 to 100
17 | O=C(O)C1=CC2(CCN(CC3CCCCC3)CC2)c2ccccc21 [compound 54] | + (activity was measured to be greater than 10.0 μM) | < 25 | + (activity was measured to be greater than 10.0 μM) | < 25
18 | CCCC(C)NC(=O)C1=CC2(CCN(CC3CC4C=CC3C4)CC2)c2ccccc21 (centres unmarked) [compound 50] | + (activity was measured to be greater than 10.0 μM) | < 25 | +++ (activity was measured to be less than 2.0 μM) | 25 to 100
19 | CC(C)NC(=O)C1=CCC2(CCN(C3C[C@@H]4CC[C@@H]3C4)CC2)c2ccccc21 (some centres unmarked) [compound 36] | + (activity was measured to be greater than 10.0 μM) | < 25 | + (activity was measured to be greater than 10.0 μM) | < 25
